Test results taken from PubChem BioAssay (NCI).
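Step 1: Grow cells in 96-well plates. Step 2: Expose to compound for 48 hours at 5 concentrations. Step 3: Interpolate endpoints linearly; if unreached, use highest concentration. Abbreviation: GI50, concentration required for 50% inhibition of growth. At the TGI there is no net growth.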

Legend:
Test in all cases: NCI anticancer screen, dose series, 48 h
NCI-H23 lung = tested on: NCI-H23 lung
SF-539 CNS = tested on: SF-539 CNS
UACC-62 melanoma = tested on: UACC-62 melanoma
OVCAR-5 ovarian = tested on: OVCAR-5 ovarian
U251 CNS = tested on: U251 CNS
786-0 renal = tested on: 786-0 renal
SK-MEL-28 melanoma = tested on: SK-MEL-28 melanoma
SN12C renal = tested on: SN12C renal
SNB-75 CNS = tested on: SNB-75 CNS
LOX IMVI melanoma = tested on: LOX IMVI melanoma
T-47D breast = tested on: T-47D breast

Structure (SMILES)	TGI (NCI-H23 lung)	TGI (SF-539 CNS)	TGI (UACC-62 melanoma)	TGI (OVCAR-5 ovarian)	TGI (U251 CNS)	TGI (786-0 renal)	TGI (SK-MEL-28 melanoma)	TGI (SN12C renal)	TGI (SNB-75 CNS)	TGI (LOX IMVI melanoma)	TGI (T-47D breast)	GI50 (T-47D breast)	GI50 (UACC-62 melanoma)	GI50 (OVCAR-5 ovarian)	GI50 (LOX IMVI melanoma)	GI50 (SK-MEL-28 melanoma)
CCOc1ccc(N=Nc2ccc(-c3ccc(N=Nc4c(O)ccc5cc(S(=O)(=O)O)cc(S(=O)(=O)O)c45)cc3)cc2)cc1	> 100 µM	> 100 µM	> 100 µM	> 100 µM	> 100 µM	> 100 µM	> 100 µM	–	–	–	–	–	–	–	–	–
C[N+]1(C)C/C(=C\c2ccc(O)cc2)C(=O)/C(=C/c2ccc(O)cc2)C1	–	> 100 µM	> 100 µM	> 100 µM	> 100 µM	> 100 µM	> 100 µM	> 100 µM	> 100 µM	> 100 µM	–	–	–	–	–	–
CC1(Cc2cc3c(cc2C2(c4ccc([N+](=O)[O-])cc4)OCCO2)OCO3)OCCO1	> 100 µM	> 100 µM	> 100 µM	> 100 µM	> 100 µM	> 100 µM	> 100 µM	> 100 µM	–	> 100 µM	> 100 µM	–	–	–	–	–
O=C(CSc1nc2ccc(I)cc2c(=O)n1Cc1ccccc1)NN1C(=O)CSC1c1ccccc1 (stereo not given)	43.2 µM	70.7 µM	36.7 µM	> 100 µM	69.5 µM	> 100 µM	95.9 µM	56.1 µM	> 100 µM	39.1 µM	92.5 µM	–	–	–	–	–
CC(=O)c1c(C)cc2cccc(OC3OC(CO)C(O)C(O)C3O)c2c1O (stereo not given) (tested in a mixture with another compound)	> 100 µM	> 100 µM	> 100 µM	> 100 µM	> 100 µM	> 100 µM	> 100 µM	> 100 µM	> 100 µM	> 100 µM	> 100 µM	–	–	–	–	–
O=C(/C=C/c1ccc(O)cc1)c1cc(-c2cc(CCC(=O)c3ccc(O)cc3O)ccc2O)c(O)cc1O	> 50 µM	24.8 µM	> 50 µM	> 50 µM	> 50 µM	> 50 µM	> 50 µM	> 50 µM	41.7 µM	> 50 µM	> 50 µM	–	–	–	–	–
O=C1O/C(=C\C=C\CO)C=C1/C=C/CO	41.9 µM	55 µM	39.8 µM	41.7 µM	> 100 µM	33.7 µM	49.7 µM	80.4 µM	> 100 µM	> 100 µM	51.7 µM	–	–	–	–	–
O=S(=O)([O-])[O-].[Fe+2].[OH2+]c1c(Cl)cc(Cl)cc1/C=N/Nc1ccccn1	2.64 µM	1.27 µM	3.38 µM	5.97 µM	2.74 µM	1.92 µM	3.32 µM	2.82 µM	1.64 µM	2.79 µM	–	–	–	–	–	–
Cc1cc(C)nc(NS(=O)(=O)c2ccc(Nc3nnc(/C=C/c4c(O)ccc5ccccc45)c(=O)n3N)cc2)n1	57.7 µM	–	60.1 µM	75.4 µM	–	62.9 µM	–	73.2 µM	55.9 µM	–	51.5 µM	–	–	–	–	–
COc1cc(O)c2c(=O)c(OC)c(-c3ccc(OC)c(OC)c3)oc2c1.[Zn+2]	–	> 100 µM	> 100 µM	> 100 µM	–	> 100 µM	> 100 µM	> 100 µM	8.79 µM	> 100 µM	> 100 µM	5.7 µM	11.7 µM	> 100 µM	7.68 µM	> 100 µM
Nc1ccc(S(=O)(=O)NCCS(=O)(=O)O)cc1	> 100 µM	–	> 100 µM	> 100 µM	> 100 µM	> 100 µM	> 100 µM	> 100 µM	> 100 µM	> 100 µM	–	–	–	–	–	–
